Assay results taken from ChEMBL document CHEMBL4422680, “Synthesis, biological evaluation, and molecular docking study of novel allyl-retrochalcones as a new class of protein tyrosine phosphatase 1B inhibitors” (Bioorg Med Chem, 2019).
Calls of active or inactive are those of the source. The calls are words filed in the database; no cut-off is given here.

Legend:
[1] = target: T1, Tyrosine-protein phosphatase non-receptor type 1 (Homo sapiens, UniProt P18031); test: (§1) Inhibition of recombinant human PTP1B using pNPP as substrate measured after 30 mins
T1 sequence (P18031 whole entry): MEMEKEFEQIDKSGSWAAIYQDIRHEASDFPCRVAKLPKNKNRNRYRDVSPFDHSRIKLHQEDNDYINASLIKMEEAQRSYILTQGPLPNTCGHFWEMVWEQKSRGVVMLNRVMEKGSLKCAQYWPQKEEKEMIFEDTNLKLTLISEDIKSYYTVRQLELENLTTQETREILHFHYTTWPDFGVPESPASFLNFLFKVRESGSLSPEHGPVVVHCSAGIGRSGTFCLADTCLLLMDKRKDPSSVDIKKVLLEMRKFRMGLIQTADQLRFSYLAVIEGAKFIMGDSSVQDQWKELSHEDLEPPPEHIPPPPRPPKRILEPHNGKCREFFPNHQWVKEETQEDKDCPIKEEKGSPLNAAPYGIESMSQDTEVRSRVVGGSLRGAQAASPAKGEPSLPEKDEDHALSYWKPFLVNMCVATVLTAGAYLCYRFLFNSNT

[2] = target: T2, Tyrosine-protein phosphatase non-receptor type 1 (Homo sapiens) (UniProt P18031); test: as §1
T2 sequence (whole entry): T1 sequence (P18031 whole entry)

[3] = Drug uptake in Sprague-Dawley rat at 20 mg/kg, ig administered as single dose measured after 4 hrs by UPLC/MS/MS analysis; type: ADME, organism-based; settings: in vivo, po
[4] = target: T2, Tyrosine-protein phosphatase non-receptor type 1 (Homo sapiens); test: Inhibition of PTP1B in human HepG2 cells assessed as suppression of PA-induced insulin resistance by measuring increase in IRS1 phosphorylation at 5 uM preincubated for 1 hr followed by PA-stimulation for 24 hrs and subsequent insulin measured by immunoblotting analysis; type: cell-based
[5] = AUC (0 to t) in Sprague-Dawley rat at 2 mg/kg, iv administered as single dose by UPLC/MS/MS analysis; type: ADME, organism-based; settings: in vivo
[6] = Tmax in Sprague-Dawley rat at 20 mg/kg, ig administered as single dose by UPLC/MS/MS analysis; type: ADME, organism-based; settings: in vivo, po
[7] = AUC (0 to infinity) in Sprague-Dawley rat at 2 mg/kg, iv administered as single dose by UPLC/MS/MS analysis; type: ADME, organism-based; design: dose 2 mg/kg, route intravenous, time infinity; settings: in vivo
[8] = target: T2, Tyrosine-protein phosphatase non-receptor type 1 (Homo sapiens); test: Inhibition of PTP1B in human HepG2 cells assessed as suppression of PA-induced insulin resistance by measuring increase in AKT phosphorylation at 10 uM preincubated for 1 hr followed by PA-stimulation for 24 hrs and subsequent insulin measured by immunoblotting analysis; type: cell-based
Mus musculus [9] = test: Protection against hyperglycemia-induced liver injury in db/db mouse assessed as reduction in serum total cholesterol level at 10 to 20 mg/kg, po administered every other day for 10 weeks measured post last dose; type: functional, organism-based
[10] = Cmax in Sprague-Dawley rat at 20 mg/kg, ig administered as single dose by UPLC/MS/MS analysis; type: ADME, organism-based; design: dose 20 mg/kg, route […]; settings: in vivo, po
[11] = Apparent half-life of the terminal disposition phase in Sprague-Dawley rat at 2 mg/kg, iv administered as single dose by UPLC/MS/MS analysis; type: ADME, organism-based; settings: in vivo, read-out: t1/2 lambda z (converted)
[12] = Cmax in Sprague-Dawley rat at 2 mg/kg, iv administered as single dose by UPLC/MS/MS analysis; type: ADME, organism-based; design: dose 2 mg/kg, route intravenous; settings: in vivo
Mus musculus [13] = test: Protection against hyperglycemia-induced liver injury in db/db mouse assessed as reduction in steatosis at 10 to 20 mg/kg, po administered every other day for 10 weeks measured post last dose by hematoxylin and eosin staining based light microscopic analysis; type: functional, organism-based
Mus musculus [14] = test: Protection against hyperglycemia-induced liver injury in db/db mouse assessed as reduction in serum ALT level at 10 to 20 mg/kg, po administered every other day for 10 weeks measured post last dose; type: functional, organism-based
Mus musculus [15] = test: Protection against hyperglycemia-induced liver injury in db/db mouse assessed as reduction in serum AKP level at 10 to 20 mg/kg, po administered every other day for 10 weeks measured post last dose; type: functional, organism-based
[16] = target: T2, Tyrosine-protein phosphatase non-receptor type 1 (Homo sapiens); test: Potency index, ratio of […] IC50 to test compound IC50 for recombinant human PTP1B
[17] = Tmax in Sprague-Dawley rat at 2 mg/kg, iv administered as single dose by UPLC/MS/MS analysis; type: ADME, organism-based; settings: in vivo
[18] = AUC (0 to infinity) in Sprague-Dawley rat at 20 mg/kg, ig administered as single dose by UPLC/MS/MS analysis; type: ADME, organism-based; design: dose 20 mg/kg, time infinity, route […]; settings: in vivo, po
Mus musculus [19] = test: Protection against hyperglycemia-induced liver injury in db/db mouse assessed as increase in IRS1 phosphorylation in liver at 10 to 20 mg/kg, po administered every other day for 10 weeks measured post last dose by immunoblotting analysis; type: functional, organism-based
[20] = AUC (0 to t) in Sprague-Dawley rat at 20 mg/kg, ig administered as single dose by UPLC/MS/MS analysis; type: ADME, organism-based; settings: in vivo, po
Mus musculus [21] = test: Protection against hyperglycemia-induced liver injury in db/db mouse assessed as reduction in size and number of liver lipid droplets at 10 to 20 mg/kg, po administered every other day for 10 weeks measured post last dose by hematoxylin and eosin staining based light microscopic analysis; type: functional, organism-based
[22] = Apparent half-life of the terminal disposition phase in Sprague-Dawley rat at 20 mg/kg, ig administered as single dose by UPLC/MS/MS analysis; type: ADME, organism-based; settings: in vivo, po, read-out: t1/2 lambda z (converted)

Structure (SMILES) | inhibition [2] | IC50 ([1]; read-out: IC50) [µM] | other results
C=CCOc1ccc(C(=O)/C=C/c2cc(CC=C)c(OC3CCCCO3)cc2OC)c(O)c1 (stereo not drawn) | – | – | IC50 [1]: Not Active
C=CC(C)(C)c1cc(/C=C/C(=O)c2ccc(O)cc2)c(OC)cc1O | Dose-dependent effect | – | –
C=CCc1cc(/C=C/C(=O)c2ccc(OCC(=O)OCC)cc2)c(OC)cc1O | Dose-dependent effect | 9.4 | –
C=CCc1cc(/C=C/C(=O)c2cc3c(cc2N(C)C)OCO3)c(OC)cc1O | Dose-dependent effect | 11.8 | –
C=CCc1cc(/C=C/C(=O)c2ccc(N3CCOCC3)cc2)c(OC)cc1O | Dose-dependent effect | 12.3 | –
C=CCc1cc(/C=C/C(=O)c2cccc(NS(C)(=O)=O)c2)c(OC)cc1O | – | – | IC50 [1]: Not Active
C=CCc1cc(/C=C/C(=O)c2cccc(N(C)C)c2)c(OC(C)C)cc1O | Dose-dependent effect | 6.9 | –
C=CCc1cc(/C=C/C(=O)c2ccc(OC)cc2O)c(OC)cc1O | Dose-dependent effect | 24.8 | –
C=CCc1cc(/C=C/C(=O)c2ccc(OCCCC(=O)O)cc2)c(OC)cc1O | – | 32.8 | –
C=CCc1cc(/C=C/C(=O)c2cccc(O)c2)c(OC)cc1O | – | – | IC50 [1]: Not Active
C=CCc1cc(/C=C/C(=O)c2cccc(N3CCCCC3)c2)c(OC)cc1O | Dose-dependent effect | 7.2 | –
C=CCc1cc(/C=C/C(=O)c2ccc(OC)c(CC=C(C)C)c2)c(OC)cc1O | Dose-dependent effect | 8.2 | –
C[C@H]1[C@H](C)CC[C@]2(C(=O)O)CC[C@]3(C)C(=CC[C@@H]4[C@@]5(C)CC[C@H](O)C(C)(C)[C@@H]5CC[C@]43C)[C@H]12 | Dose-dependent effect | – | –
C=CCc1cc(/C=C/C(=O)c2ccccc2N(C)C)c(OC)cc1O | Dose-dependent effect | 16.3 | –
C=CCc1cc(/C=C/C(=O)c2ccc(OC)c(CC=C)c2)c(OC)cc1O | Dose-dependent effect | 10.9 | –
C=CCc1cc(/C=C/C(=O)c2ccc(OCCCC(=O)OCC)cc2)c(OC)cc1O | Dose-dependent effect | 25.6 | –
C=CCc1cc(/C=C/C(=O)c2ccc(O)cc2)c(OC)cc1O | Dose-dependent effect | 12.9 | –
C=CCc1cc(/C=C/C(=O)c2ccc(OC)cc2)c(OC)cc1O | Dose-dependent effect | 7.4 | –
C=CCc1cc(/C=C/C(=O)c2ccc(O)cc2)c(OC)cc1OC1CCCCO1 (stereo not drawn) | Dose-dependent effect | 9.4 | –
C=CCc1cc(/C=C/C(=O)c2cccc(OC)c2)c(OC)cc1O | Dose-dependent effect | 14.6 | –
C=CCc1cc(/C=C/C(=O)c2ccc(N(C)C)cc2)c(OC)cc1O | Dose-dependent effect | 6.9 | –
C=CCc1cc(/C=C/C(=O)c2ccccc2N2CCCCC2)c(OC)cc1O | Dose-dependent effect | 9.5 | –
C=CCc1cc(/C=C/C(=O)c2ccc(N3CCCCC3)cc2)c(OC)cc1O | Dose-dependent effect | 6.9 | –
C=CCc1cc(/C=C/C(=O)c2ccc(OCC(=O)O)cc2)c(OC)cc1O | Dose-dependent effect | 12.6 | –

Continued by falling IC50 ([1]; read-out: IC50), values first:

inhibition [2] | IC50 ([1]; read-out: IC50) [µM] | Structure (SMILES) | other results
Dose-dependent effect | 6.6 | C=CCc1cc(/C=C/C(=O)c2ccc(OC(=O)c3ccc(Br)cc3)cc2)c(OC)cc1O | –
Dose-dependent effect | 6.5 | C=CCOc1ccc(C(=O)/C=C/c2cc(CC=C)c(O)cc2OC)c(O)c1 | –
Dose-dependent effect | 6.3 | C=CCc1cc(/C=C/C(=O)c2ccc(-n3cccn3)cc2)c(OC)cc1O | –
Dose-dependent effect | 5.9 | C=CCc1cc(/C=C/C(=O)c2ccc(N(CC=C)CC=C)cc2)c(OC)cc1O | –
Dose-dependent effect | 5.9 | C=CCc1cc(/C=C/C(=O)c2ccc(OCC=C(C)C)cc2)c(OC)cc1O | –
Dose-dependent effect | 5.8 | C=CCc1cc(/C=C/C(=O)c2ccc(OCCCCC(=O)O)cc2)c(OC)cc1O | –
Dose-dependent effect | 5.4 | C=CCOc1ccc(C(=O)/C=C/c2cc(CC=C)c(O)cc2OC)cc1 | –
Dose-dependent effect | 5.4 | C=CCc1cc(/C=C/C(=O)c2ccc(OC)c(C(C)C(=C)C)c2)c(OC)cc1O (stereo not drawn) | –
Dose-dependent effect | 5.3 | C=CCc1cc(/C=C/C(=O)c2ccc(OCC)cc2)c(OC)cc1O | –
Dose-dependent effect | 5 | C=CCc1cc(/C=C/C(=O)c2ccc(OC(=O)c3ccc(C(C)(C)C)cc3)cc2)c(OC)cc1O | –
Dose-dependent effect | 5 | C=CCc1cc(/C=C/C(=O)c2cccc(N(C)C)c2)c(OCc2ccccc2)cc1O | –
Dose-dependent effect | 4.7 | C=CCc1cc(/C=C/C(=O)c2cccc(N(CC=C)CC=C)c2)c(OC)cc1O | –
Dose-dependent effect | 4.6 | C=CCc1cc(/C=C/C(=O)c2ccc(OC(=O)c3ccccc3)cc2)c(OC)cc1O | –
Dose-dependent effect | 4 | C=C(C)[C@H](C)c1cc(/C=C/C(=O)c2ccc(O)cc2)c(OC)cc1O [LICOCHALCONE E] | –
Dose-dependent effect | 3.9 | C=CCOc1ccc(C(=O)/C=C/c2cc(CC=C)c(O)cc2OC)c(OC)c1 | –
Dose-dependent effect | 3.9 | C=CCc1cc(/C=C/C(=O)c2ccc(OCCCCC(=O)OCC)cc2)c(OC)cc1O | –
Dose-dependent effect | 3 | C=CCc1cc(/C=C/C(=O)c2ccc(OCC=C(C)C)cc2O)c(OC)cc1O | –
Dose-dependent effect | 0.57 | C=CCc1cc(/C=C/C(=O)c2cccc(N(C)C)c2)c(OC)cc1O | Drug uptake [3]: Active; inhibition [4]: Active; AUC(0-t) [5]: 1430 ng·h/mL; Tmax [6]: 14 h; AUC(0-inf) [7]: 1620 ng·h/mL; inhibition [8]: Active; Activity (Mus musculus [9]): Active; Cmax [10]: 46.2 ng/mL; half-life [11]: 21.1 h; Cmax [12]: 2150 ng/mL; Activity (Mus musculus [13]): Active; Activity (Mus musculus [14]): Active; Activity (Mus musculus [15]): Active; Ratio IC50 [16]: 6; Tmax [17]: 4.8 min; AUC [18]: 605.52 ng·h/mL; Activity (Mus musculus [19]): Active; AUC(0-t) [20]: 584 ng·h/mL; Activity (Mus musculus [21]): Active; half-life [22]: 8.85 h
